Data from patent US7662607B2, “Chalaropsis lysozyme protein and its method of use in anti-bacterial applications” (New Century Pharmaceuticals, Inc., priority 2003, dated 2010).

B1: Lysozyme Ch: Lysozyme from fungus Chalaropsis species, N,O-diacetylmuramidase, corrected sequence SEQ ID NO:1 (protein, listed as Chalaropsis sp.)
chain: TVQGFDISSYQPSVNFAGAYSAGARFVIIKATEGTSYTNPSFSSQYTGATNAGFIRGGYHFAHPGETTGAAQADYFIAHGGGWSGDGITLPGMLDLESEGSNPACWGLSAASMVAWIKAFSDRYHAVTGRYPMLYTNPSWWSSCTGNSNAFVNTNPLVLARYASAPGTIPGGWPYQTIWQNSDAYAYGGDSNIFNGSADNLKKLATG

What was measured:
Staphylococcus cell wall = test: Lysozyme Ch activity, turbidimetric rate determination with Staphylococcus cell wall (absorbance at 600 nm); assay type: biochemical; settings: 50 mM Sodium acetate Buffer, pH 4.8, 25° C.
Experimental: In one example, the Chalaropsis Lysozyme PEGylation was carried out using the steps as follows: (1) 15 mg of Chalaropsis Lysozyme and 1.05 g of Methoxypolyethylene glycol succinimidyl succinate (MPSS) was added into 0.1 M Sodium phosphate buffer to make final volume of 10 ml. (2) The mixture was allowed to shake on a rotator for 120 hours. The mixture was run on a SDS-PAGE to verify PEGylation (FIG. 1). (3) The mixture was concentrated with a YM-10 centriprep to a final volume of 1 ml. (4) The protein was loaded onto a XK16 column packed with Sephacryl S-300 resin. Fractions were collected every 2 min, i.e. 2 mls. (5) The following fractions are run on two gels (FIG. 2 and FIG. 3): • Gel1: MW, 28, 30, 35, 40, 45, 50, 55, 60, 65 • Gel2: MW, 70, 75, 80, 83, 85, 90, 95, 99, 105. (6) Based on the gel, it was decided that fractions around tube 55 was fully PEGylated, and thus fractions 53 to 57 were pooled and concentrated. (7) Activity was tested at 1 mg/ml for both native and PEGylated protein. […] PEGylation of Lysozyme Ch
Lysozyme Ch activity was measured with Staphylococcus cell wall in 50 mM Sodium acetate Buffer, pH 4.8 at 25° C. Absorbance at 600 nm is monitored for the turbidimetric rate determination on an Ultrospec 2000 spectrophotometer (Ref. 2).

[1] = system: Micrococcus lysodeikticus cells; test: HEW Lysozyme activity, turbidimetric rate determination with Micrococcus lysodeikticus cells (absorbance at 450 nm); assay type: biochemical; settings: 50 mM Potassium Phosphate Buffer, pH 6.24, 25° C.
Experimental: HEW Lysozyme activity was tested with Micrococcus lysodeikticus cells in 50 mM Potassium Phosphate Buffer, pH 6.24 at 25° C. Absorbance at 450 nm is monitored for the turbidimetric rate determination on an Ultrospec 2000 spectrophotometer (ref).

Molecule | Activity against Staphylococcus cell wall (Staphylococcus cell wall) | Activity with Micrococcus lysodeikticus cells (FIG. 6) [1]
HEW Lysozyme: HEW Lysozyme used as a control | no activity | reduces the absorbance in a non-linear way
PEGylated HEW Lysozyme: HEW Lysozyme PEGylated with MPSS as a control experiment, with or without inhibitors |  | lost its entire activity
B1 | excellent activity | 
